PubChem BioAssay AID2252 (Southern Research Specialized Biocontainment Screening …, 2010)
“And” between values parts separate entries of the source, which are not always exact repeats. Equal values may be shown once.

test system: THP-1 viability, CellTiter-Glo luminescence, 72 h; experiment: PubChem AID 2252

SMILES | EC50
O=C(C[n+]1cc(-c2ccccc2)n2c1CCC2)Nc1nc(-c2ccc(F)cc2)cs1 | 32.4 µM
O=C(Oc1c(Cl)cc(Cl)c2cccnc12)c1cccc([N+](=O)[O-])c1 | 14.6 µM
NC1=NC[C@H](Cc2ccc(O)cc2)N1CCc1cccc2ccccc12 | 32.7 µM
N=c1c2c(n(Cc3ccc(Cl)cc3Cl)c3c1CCC3)CCCC2 | 3.66 µM
COc1ccccc1Nc1nc(Cl)c(C=O)s1 | 21.1 µM
C#CCOCCOCCOCCNc1nc(N2CCN(C(=O)CCCCCCCCCCNC(=O)Cn3cc(CCCCCN)nn3)CC2)nc(N2CCN(C(=O)CCCCCCCCCCNC(=O)[C@H]([C@@H](C)CC)n3cc(CCCCCN)nn3)CC2)n1 | 14.5 µM
Cc1ccc(C(C)C)c(OCCNC(=O)c2ccccc2O)c1 | 32.5 µM
N=c1n(Cc2ccc(Cl)cc2)c2ccccc2n1CC(O)COc1ccccc1 (centres undefined) | 5.39 µM
Cn1c(=O)c2c(nc(Br)n2CCSc2nc3ccccc3o2)n(C)c1=O | < 0.1 µM
CCC[C@H](CN[C@@H](CNC)[C@H](C)CC)NCCc1cc(C(F)(F)F)cc(C(F)(F)F)c1 | 4.07 µM
CN(C)CCCN(C(=O)c1cc2cc([N+](=O)[O-])ccc2s1)c1nc2cc3c(cc2s1)OCCO3 | 3.04 µM
OC(CNCCc1ccc(C(F)(F)F)cc1)COC(c1ccccc1)c1ccccc1 (centres undefined) | 15.9 µM
O=c1c2ccccc2nc(N/N=C/c2c(O)ccc3ccccc23)n1O | 0.99 µM
O=C(Cc1ccc([N+](=O)[O-])cc1)N/N=C/c1ccc([N+](=O)[O-])o1 | 12.1 µM
Cc1cc(OCC(O)CNC(C)c2ccccc2)ccc1C(C)C (centres undefined) | 13.4 µM
Cc1nc2ccccc2c(N)c1C(=O)/C=C/c1ccccc1 | 3.11 µM
C#CCOCCOCCOCCNc1nc(N2CCN(C(=O)CCCCCCCCCCNC(=O)[C@H]([C@@H](C)CC)n3cc(CCCCCN)nn3)CC2)nc(N2CCN(C(=O)CCCCCCCCCCNC(=O)[C@H]([C@@H](C)CC)n3cc(CCCCN=C(N)N)nn3)CC2)n1 | 5.17 µM
OCCN1CCN(C2CCC(c3ccc(F)cc3)c3ccc(F)cc32)CC1 (centres undefined) | 9.55 µM
O=C(NCc1cccnc1)c1ccc(COc2ccc(Cl)cc2)cc1 | 43.8 µM
CCN1c2ccccc2NC2N=C(OC)C(c3ccccc3)C21 (centres undefined) | 16.1 µM
CCCCc1ccc(N/C(N)=N/c2nc(C)cc(C)n2)cc1 | 6.47 µM
O=C(C[n+]1cn(C(F)F)c2ccccc21)c1ccc(Br)cc1 | 35.8 µM
Cc1ccc(C(=O)N/C(=C\c2ccc(-c3ccc(Cl)cc3)o2)C(=O)NCCCN(C)C)cc1 | 5.31 µM
COC(=O)C1=C(C)N(Cc2ccccc2)C(=NCc2cccc(C(F)(F)F)c2)N[C@H]1c1cccc(F)c1 | 5.3 µM
COc1ccc(CNc2ncnc3c2[nH]c2ccccc23)cc1 | 39.3 µM
c1cnc2c(c1)ccc1cccnc12 | 3.14 µM and 2.97 µM
N#CC1=C2N=C(N)c3ccccc3N2C2=C(C(=O)CCC2)C1c1cccc(Cl)c1 (centres undefined) | 27.1 µM

SMILES | EC50
Cc1c2ccncc2c(C)c2c1[nH]c1ccccc12 | 2.72 µM
COC(=O)C1C(O)C(C)C(O)C(C)/C=C\C=C(/C)C(=O)Nc2c(C)c(OC(C)=O)c3c(c2O)C(=O)C(C)=C2OCOC(=C23)/C(C)=C/C(C)(O)C(O)C(C)C1O (centres undefined) | < 0.1 µM
O=C(CCc1ccccc1)NNC(=O)c1ccccn1 | 18.2 µM
CCOc1cccc(/C=N/NC(=O)c2cc(C3CC3)[nH]n2)c1O | 5.46 µM
NC(=O)c1ccsc1NC(=O)c1ccc2c(c1)CCCC2 | 40.4 µM
OCCCCNCc1ccc(OCc2ccc(Cl)cc2Cl)cc1 | 9.8 µM
O=C(C[n+]1cnn(CC(=O)c2ccc(Cl)cc2Cl)c1)c1ccc([N+](=O)[O-])cc1 | 26.4 µM
OC(CNCCc1ccccc1)COc1ccc(OCC(O)CNCCc2ccccc2)cc1 (centres undefined) | 7.35 µM
C#CCOCCOCCOCCNc1nc(N2CCN(C(=O)CCCCCCCCCCNC(=O)[C@H]([C@@H](C)CC)n3cc(CCCCN=C(N)N)nn3)CC2)nc(N2CCN(C(=O)CCCCCCCCCCNC(=O)[C@@H]([C@H](C)O)n3cc(C)nn3)CC2)n1 | 2.98 µM
CC(=O)NC(c1cccc([N+](=O)[O-])c1)c1ccc2cccnc2c1O (centres undefined) | 0.47 µM
CC[n+]1c(/C=C/N(C)c2ccccc2)n(-c2ccccc2)c2ccc(-c3nc4ccccc4s3)cc21 | 0.44 µM
CC(C(=O)NC1C=CS(=O)(=O)C1)N1C(=O)/C(=C/c2cccc(Cl)c2)SC1=S (centres undefined) | 24.5 µM
CCN1CCN(c2cc(C)c3cc(NC(=S)N4CCN(c5ccccc5F)CC4)ccc3n2)CC1 | 17.9 µM
O=c1[nH]cc(F)c(=O)[nH]1 | 6.24 µM
CCOC(=O)Cn1c(=N)n(CCOc2ccc3ccccc3c2)c2ccccc21 | 17.7 µM
C#CCOCCOCCOCCNc1nc(N2CCN(C(=O)CCCCCCCCCCNC(=O)[C@H](CCCCN)n3cc(CCO)nn3)CC2)nc(N2CCN(C(=O)CCCCCCCCCCNC(=O)[C@H](CCCN=C(N)N)n3cc(C[C@@H](C)CC)nn3)CC2)n1 | 11.3 µM
Clc1cccc(CN2CCc3c([nH]c4ccccc34)C2)c1Cl | 8.82 µM
Clc1ccc(OCCCNCc2ccccc2)c(Br)c1 | 13.7 µM
O=[N+]([O-])c1cc(CN2CCN(c3cccc(C(F)(F)F)c3)CC2)c2cccnc2c1O | 1.74 µM
O=S(=O)(Nc1c(S(=O)(=O)c2ccccc2)c2nc3ccccc3nc2n1C1CCCCC1)c1ccccc1 | 12.3 µM
O=C(N=Nc1c(O)[nH]c2ccccc12)c1cc(-c2cccs2)[nH]n1 | < 0.1 µM
CCOc1ccc(-c2nc(N)ncc2-c2ccccc2)c(O)c1 | 46.8 µM
Cc1cc(OCCCCCNCCO)cc(C)c1Cl | 21.2 µM
c1ccc2c(c1)CCc1ccccc1C2=C1CCNCC1 | 25.2 µM
COc1ccc(C(=O)NNC(=S)NC(=O)c2ccccc2)cc1 | 6.81 µM
O=C(COc1ccc(Br)cc1CNCCc1ccccc1)NCc1ccccc1 | 10.4 µM
CCCCCCCCCCCCCCCC[N+](C)(C)CCN(Cc1ccc(OC)cc1)c1ncccn1 | 0.36 µM
